Measured values as given in ChEMBL document CHEMBL1629672, “blaCTX-M genes in escherichia coli strains from Croatian Hospitals are located in new (blaCTX-M-3a) and widely spread (blaCTX-M-3a and blaCTX-M-15) genetic structures” (2009).
In brackets after ≈: the same amount, converted by molar mass.

Columns and labels:
Escherichia coli [1] = test: Antimicrobial activity against Escherichia coli isolate 16 harboring bla CTX-M-3a gene by broth microdilution method; format: functional
Escherichia coli [2] = test: Antimicrobial activity against Escherichia coli isolate 32 harboring bla CTX-M-3a gene by broth microdilution method; format: functional
Escherichia coli [3] = test: Antimicrobial activity against Escherichia coli isolate 86 harboring bla CTX-M-3a gene by broth microdilution method; format: functional
Escherichia coli [4] = test: Antimicrobial activity against Escherichia coli isolate 36 harboring bla CTX-M-3a gene by broth microdilution method; format: functional
Escherichia coli [5] = test: Antimicrobial activity against Escherichia coli isolate 100 harboring bla CTX-M-3a gene by broth microdilution method; format: functional
Escherichia coli [6] = test: Antimicrobial activity against Escherichia coli isolate Z1 harboring bla CTX-M-3a gene by broth microdilution method; format: functional
Escherichia coli [7] = test: Antimicrobial activity against Escherichia coli isolate 49 harboring bla CTX-M-3a gene by broth microdilution method; format: functional
Escherichia coli [8] = test: microbe, parasite or virus in culture; conditions: ATCC 25922
Escherichia coli [9] = test: Antimicrobial activity against Escherichia coli isolate 16 harboring bla CTX-M-3a gene by broth microdilution method in presence of Tazobactam; format: functional
Escherichia coli [10] = test: Antimicrobial activity against Escherichia coli isolate 32 harboring bla CTX-M-3a gene by broth microdilution method in presence of Tazobactam; format: functional
Escherichia coli [11] = test: Antimicrobial activity against Escherichia coli isolate 86 harboring bla CTX-M-3a gene by broth microdilution method in presence of Tazobactam; format: functional
Escherichia coli [12] = test: Antimicrobial activity against Escherichia coli isolate 36 harboring bla CTX-M-3a gene by broth microdilution method in presence of Tazobactam; format: functional
Escherichia coli [13] = test: Antimicrobial activity against Escherichia coli isolate 100 harboring bla CTX-M-3a gene by broth microdilution method in presence of Tazobactam; format: functional
Escherichia coli [14] = test: Antimicrobial activity against Escherichia coli isolate 49 harboring bla CTX-M-3a gene by broth microdilution method in presence of Tazobactam; format: functional
Escherichia coli [15] = test: Antimicrobial activity against Escherichia coli ATCC 25922 harboring bla CTX-M-3a gene by broth microdilution method in presence of Tazobactam; format: functional
Escherichia coli [16] = test: Antimicrobial activity against Escherichia coli isolate 16 harboring bla CTX-M-3a gene by broth microdilution method in presence of clavulanic acid
Escherichia coli [17] = test: Antimicrobial activity against Escherichia coli isolate 32 harboring bla CTX-M-3a gene by broth microdilution method in presence of clavulanic acid
Escherichia coli [18] = test: Antimicrobial activity against Escherichia coli isolate 86 harboring bla CTX-M-3a gene by broth microdilution method in presence of clavulanic acid
Escherichia coli [19] = test: Antimicrobial activity against Escherichia coli isolate 36 harboring bla CTX-M-3a gene by broth microdilution method in presence of clavulanic acid
Escherichia coli [20] = test: Antimicrobial activity against Escherichia coli isolate 100 harboring bla CTX-M-3a gene by broth microdilution method in presence of clavulanic acid
Escherichia coli [21] = test: Antimicrobial activity against Escherichia coli isolate Z1 harboring bla CTX-M-3a gene by broth microdilution method in presence of clavulanic acid
Escherichia coli [22] = test: Antimicrobial activity against Escherichia coli isolate 49 harboring bla CTX-M-3a gene by broth microdilution method in presence of clavulanic acid
Escherichia coli [23] = test: Antimicrobial activity against Escherichia coli ATCC 25922 harboring bla CTX-M-3a gene by broth microdilution method in presence of clavulanic acid; format: functional

## CC1(C)S[C@@H]2[C@H](NC(=O)[C@H](N)c3ccc(O)cc3)C(=O)N2[C@H]1C(=O)O [AMOXICILLIN]
Escherichia coli [1]
  MIC: 4 µg/mL (≈ 10.9 µM)
Escherichia coli [2]
  MIC: 8 µg/mL (≈ 21.9 µM)
Escherichia coli [3]
  MIC: 8 µg/mL (≈ 21.9 µM)
Escherichia coli [4]
  MIC: 8 µg/mL (≈ 21.9 µM)
Escherichia coli [5]
  MIC: 8 µg/mL (≈ 21.9 µM)
Escherichia coli [6]
  MIC: 32 µg/mL (≈ 87.6 µM)
Escherichia coli [7]
  MIC: 1 µg/mL (≈ 2.74 µM)
Escherichia coli [8]
  MIC: 4 µg/mL (≈ 10.9 µM)

## CCN1CCN(C(=O)N[C@@H](C(=O)N[C@@H]2C(=O)N3[C@@H]2SC(C)(C)[C@@H]3C(=O)O)c2ccccc2)C(=O)C1=O [PIPERACILLIN]
Escherichia coli [1]
  MIC: 256 µg/mL (≈ 495 µM)
Escherichia coli [2]
  MIC: > 1020 µg/mL
Escherichia coli [3]
  MIC: > 1020 µg/mL
Escherichia coli [4]
  MIC: > 1020 µg/mL
Escherichia coli [5]
  MIC: > 1020 µg/mL
Escherichia coli [6]
  MIC: > 1020 µg/mL
Escherichia coli [7]
  MIC: 64 µg/mL (≈ 124 µM)
Escherichia coli [9]
  MIC: 2 µg/mL
Escherichia coli [10]
  MIC: 16 µg/mL
Escherichia coli [11]
  MIC: > 128 µg/mL
Escherichia coli [12]
  MIC: 4 µg/mL
Escherichia coli [13]
  MIC: 4 µg/mL
Escherichia coli [14]
  MIC: 8 µg/mL
Escherichia coli [15]
  MIC: 2 µg/mL
Escherichia coli [8]
  MIC: 2 µg/mL (≈ 3.86 µM)

## CC(C)(O/N=C(\C(=O)N[C@@H]1C(=O)N2C(C(=O)[O-])=C(C[n+]3ccccc3)CS[C@H]12)c1csc(N)n1)C(=O)O [CEFTAZIDIME]
Escherichia coli [1]
  MIC: 1 µg/mL (≈ 1.83 µM)
Escherichia coli [2]
  MIC: 4 µg/mL (≈ 7.32 µM)
Escherichia coli [3]
  MIC: 8 µg/mL (≈ 14.6 µM)
Escherichia coli [4]
  MIC: 4 µg/mL (≈ 7.32 µM)
Escherichia coli [5]
  MIC: 4 µg/mL (≈ 7.32 µM)
Escherichia coli [6]
  MIC: 16 µg/mL (≈ 29.3 µM)
Escherichia coli [7]
  MIC: 0.25 µg/mL (≈ 0.457 µM)
Escherichia coli [16]
  MIC: 0.125 µg/mL
Escherichia coli [17]
  MIC: 0.5 µg/mL
Escherichia coli [18]
  MIC: 0.5 µg/mL
Escherichia coli [19]
  MIC: 0.25 µg/mL
Escherichia coli [20]
  MIC: 0.5 µg/mL
Escherichia coli [21]
  MIC: 1 µg/mL
Escherichia coli [22]
  MIC: 0.06 µg/mL
Escherichia coli [23]
  MIC: 0.125 µg/mL
Escherichia coli [8]
  MIC: 0.25 µg/mL (≈ 0.457 µM)

## CO/N=C(\C(=O)N[C@@H]1C(=O)N2C(C(=O)[O-])=C(C[N+]3(C)CCCC3)CS[C@H]12)c1csc(N)n1
Escherichia coli [1]
  MIC: 128 µg/mL (≈ 266 µM)
Escherichia coli [3]
  MIC: 512 µg/mL (≈ 1070 µM)
Escherichia coli [4]
  MIC: 256 µg/mL (≈ 533 µM)
Escherichia coli [5]
  MIC: 32 µg/mL (≈ 66.6 µM)
Escherichia coli [6]
  MIC: 64 µg/mL (≈ 133 µM)
Escherichia coli [7]
  MIC: 8 µg/mL (≈ 16.6 µM)

## CC1(C)S[C@@H]2[C@H](NC(=O)[C@H](N)c3ccccc3)C(=O)N2[C@H]1C(=O)O [AMPICILLIN]
Escherichia coli [1]
  MIC: > 1020 µg/mL
Escherichia coli [2]
  MIC: > 1020 µg/mL
Escherichia coli [3]
  MIC: > 1020 µg/mL
Escherichia coli [4]
  MIC: > 1020 µg/mL
Escherichia coli [5]
  MIC: > 1020 µg/mL
Escherichia coli [6]
  MIC: > 1020 µg/mL
Escherichia coli [7]
  MIC: > 1020 µg/mL
Escherichia coli [8]
  MIC: 4 µg/mL (≈ 11.4 µM)

## O=C(O)c1cn(C2CC2)c2cc(N3CCNCC3)c(F)cc2c1=O [CIPROFLOXACIN]
Escherichia coli [6]
  MIC: > 128 µg/mL
Escherichia coli [7]
  MIC: ≤ 0.03 µg/mL
Escherichia coli [8]
  MIC: ≤ 0.03 µg/mL

## GENTAMICIN
Escherichia coli [1]
  MIC: 32 µg/mL
Escherichia coli [2]
  MIC: > 128 µg/mL
Escherichia coli [3]
  MIC: > 128 µg/mL
Escherichia coli [4]
  MIC: 1 µg/mL
Escherichia coli [5]
  MIC: > 128 µg/mL
Escherichia coli [6]
  MIC: > 128 µg/mL
Escherichia coli [7]
  MIC: 0.125 µg/mL

## CO/N=C(\C(=O)N[C@@H]1C(=O)N2C(C(=O)O)=C(CSc3nc(=O)c(O)nn3C)CS[C@H]12)c1csc(N)n1 [CEFTRIAXONE]
Escherichia coli [1]
  MIC: > 1020 µg/mL
Escherichia coli [2]
  MIC: > 1020 µg/mL
Escherichia coli [3]
  MIC: > 1020 µg/mL
Escherichia coli [4]
  MIC: > 1020 µg/mL
Escherichia coli [5]
  MIC: > 1020 µg/mL
Escherichia coli [6]
  MIC: > 1020 µg/mL
Escherichia coli [7]
  MIC: 128 µg/mL (≈ 231 µM)
Escherichia coli [8]
  MIC: 0.06 µg/mL (≈ 0.108 µM)

## CO[C@@]1(NC(=O)Cc2cccs2)C(=O)N2C(C(=O)O)=C(COC(N)=O)CS[C@@H]21 [CEFOXITIN]
Escherichia coli [1]
  MIC: 4 µg/mL (≈ 9.36 µM)
Escherichia coli [2]
  MIC: 16 µg/mL (≈ 37.4 µM)
Escherichia coli [3]
  MIC: 16 µg/mL (≈ 37.4 µM)
Escherichia coli [4]
  MIC: 8 µg/mL (≈ 18.7 µM)
Escherichia coli [5]
  MIC: 8 µg/mL (≈ 18.7 µM)
Escherichia coli [6]
  MIC: 16 µg/mL (≈ 37.4 µM)
Escherichia coli [7]
  MIC: 2 µg/mL (≈ 4.68 µM)
Escherichia coli [8]
  MIC: 4 µg/mL (≈ 9.36 µM)

## NCC[C@H](O)C(=O)N[C@@H]1C[C@H](N)[C@@H](O[C@H]2O[C@H](CN)[C@@H](O)[C@H](O)[C@H]2O)[C@H](O)[C@H]1O[C@H]1O[C@H](CO)[C@@H](O)[C@H](N)[C@H]1O [AMIKACIN]
Escherichia coli [1]
  MIC: 64 µg/mL (≈ 109 µM)
Escherichia coli [2]
  MIC: 16 µg/mL (≈ 27.3 µM)
Escherichia coli [3]
  MIC: 4 µg/mL (≈ 6.83 µM)
Escherichia coli [4]
  MIC: 2 µg/mL (≈ 3.42 µM)
Escherichia coli [5]
  MIC: > 128 µg/mL
Escherichia coli [6]
  MIC: > 128 µg/mL
Escherichia coli [7]
  MIC: ≤ 0.03 µg/mL
Escherichia coli [8]
  MIC: 1 µg/mL (≈ 1.71 µM)

## CO/N=C(\C(=O)N[C@@H]1C(=O)N2C(C(=O)O)=C(COC(C)=O)CS[C@H]12)c1csc(N)n1 [CEFOTAXIME]
Escherichia coli [1]
  MIC: 64 µg/mL (≈ 141 µM)
Escherichia coli [2]
  MIC: > 1020 µg/mL
Escherichia coli [3]
  MIC: > 1020 µg/mL
Escherichia coli [4]
  MIC: 512 µg/mL (≈ 1120 µM)
Escherichia coli [5]
  MIC: 128 µg/mL (≈ 281 µM)
Escherichia coli [6]
  MIC: > 1020 µg/mL
Escherichia coli [7]
  MIC: 128 µg/mL (≈ 281 µM)
Escherichia coli [16]
  MIC: 0.125 µg/mL
Escherichia coli [17]
  MIC: 0.06 µg/mL
Escherichia coli [18]
  MIC: 0.125 µg/mL
Escherichia coli [19]
  MIC: 0.06 µg/mL
Escherichia coli [20]
  MIC: 0.06 µg/mL
Escherichia coli [21]
  MIC: 0.5 µg/mL
Escherichia coli [22]
  MIC: 0.06 µg/mL
Escherichia coli [23]
  MIC: ≤ 0.03 µg/mL
Escherichia coli [8]
  MIC: 0.06 µg/mL (≈ 0.132 µM)

## C[C@@H](O)[C@H]1C(=O)N2C(C(=O)O)=C(SCCNC=N)C[C@H]12 [IMIPENEM ANHYDROUS]
Escherichia coli [2]
  MIC: 0.25 µg/mL (≈ 0.835 µM)
Escherichia coli [4]
  MIC: 0.25 µg/mL (≈ 0.835 µM)
Escherichia coli [5]
  MIC: 0.5 µg/mL (≈ 1.67 µM)
Escherichia coli [6]
  MIC: 1 µg/mL (≈ 3.34 µM)
Escherichia coli [7]
  MIC: 0.06 µg/mL (≈ 0.2 µM)

## C[C@@H](O)[C@H]1C(=O)N2C(C(=O)O)=C(S[C@@H]3CN[C@H](C(=O)N(C)C)C3)[C@H](C)[C@H]12 [MEROPENEM]
Escherichia coli [1]
  MIC: 0.06 µg/mL (≈ 0.156 µM)
Escherichia coli [2]
  MIC: 0.06 µg/mL (≈ 0.156 µM)
Escherichia coli [3]
  MIC: 0.06 µg/mL (≈ 0.156 µM)
Escherichia coli [4]
  MIC: 0.125 µg/mL (≈ 0.326 µM)
Escherichia coli [5]
  MIC: 0.25 µg/mL (≈ 0.652 µM)
Escherichia coli [6]
  MIC: 0.125 µg/mL (≈ 0.326 µM)
Escherichia coli [7]
  MIC: 0.06 µg/mL (≈ 0.156 µM)
Escherichia coli [8]
  MIC: ≤ 0.03 µg/mL
